Earlier results in patent US20250331549A1, “AEROSOL-GENERATING ARTICLE WITH AVERSIVE AGENT” (PHILIP MORRIS PRODUCTS S.A., priority 2022, published 2025).
Structures can show the parent of a compound that is named as a salt. Where two headings read alike, the source gives them in different places.

[1] = reciprocal of the dilution that still has a bitter taste, known bittering agents, Table 1
[2] = quinine hydrochloride value is the set reference, denatonium benzoate value is estimated

Row | Compound | Bitterness value [1] | Bitterness value [2]
1 | amarogentin | 58,000,000 | –
2 | CC1=C[C@H]2[C@H]3[C@H](C(C)=C4[C@H]5OC(=O)[C@@H](C)[C@@H]5CC[C@](C)(O)[C@@H]43)[C@@]13[C@@H]2[C@@](C)(O)CC[C@H]1[C@H](C)C(=O)O[C@@H]13 [Absinthin, absinthin] | 3,000,000 | –
3 | COC1=C[C@@H](C)[C@@H]2C[C@H]3OC(=O)C[C@H]4C(C)=C(OC)C(=O)[C@H]([C@@]2(C)C1=O)[C@@]34C [Quassin, quassin] | 13,000,000 | –
4 | CC[N+](CC)(CC(=O)Nc1c(C)cccc1C)Cc1ccccc1 [Denatonium benzoate, denatonium benzoate] | >100,000,000 | over 100,000,000
5 | C=C[C@H]1C[N@@]2CC[C@H]1C[C@H]2[C@H](O)c1ccnc2ccc(OC)cc12 [Quinine hydrochloride, quinine hydrochloride, reference compound] | 200,000 | 200,000
6 | C[C@@]12C[C@@H](c3ccoc3)OC(=O)[C@@H]1CC[C@]1(C)[C@H]2[C@@H]2C=C[C@@]1(O)C(=O)O2 [Columbin, columbin] | 60,000,000 | –
